In patent US10118915B2, “Kappa opioid ligands” (The Scripps Research Institute, priority 2012, dated 2018):
pIC50: −log10 of the molar value. Read-outs that look alike come from different tables or passages of the source.

Target: kappa opioid receptor (OPRK1) (Homo sapiens (Human), UniProt P41145)
Assay: OPRK1 antagonist assay (b-arrestin-2-TEV protease / b-lactamase reporter cell line, EC80 challenge of U-50488)
Type: cell-based
[1] = antagonist mode vs EC80 U-50488, read-out: IC50

kappa opioid receptor (OPRK1), sequence (P41145 whole entry): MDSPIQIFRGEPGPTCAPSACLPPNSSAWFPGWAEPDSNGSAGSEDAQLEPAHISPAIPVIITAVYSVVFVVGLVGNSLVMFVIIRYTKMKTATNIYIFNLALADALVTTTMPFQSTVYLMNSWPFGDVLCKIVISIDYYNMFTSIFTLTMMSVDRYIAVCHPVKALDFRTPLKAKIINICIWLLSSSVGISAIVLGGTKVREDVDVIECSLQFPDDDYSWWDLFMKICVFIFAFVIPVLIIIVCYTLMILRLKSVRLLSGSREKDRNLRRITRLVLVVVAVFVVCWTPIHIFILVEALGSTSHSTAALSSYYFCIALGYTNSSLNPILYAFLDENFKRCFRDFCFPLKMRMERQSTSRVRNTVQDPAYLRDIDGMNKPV

Compound: Cc1ccc2nc(N3C[C@@H]4[C@H](C3)[C@H]4NC3CCOCC3)c(-c3nc(C)no3)cc2c1 [C88]
- pIC50: < 5.00

Compound: Cc1nc(-c2cc3cc(F)ccc3nc2N2CCC(NC3CCCCCC3)CC2)no1 [compound 489]
- pIC50 [1]: 6.21

Compound: CC(C)c1noc(-c2cc(Br)cnc2N2CCC(NC3CCCCC3)CC2)n1 [C42]
- pIC50: < 5.00

Compound: Cc1cc(C#N)nc(N2CCC(N[C@@H]3CCCC[C@H]3O)CC2)c1C#N [C11]
- pIC50 [1]: < 5.00

Compound: COC(=O)c1cc(Br)cnc1NC1CCC(NC2CCCCC2)CC1 (centres unmarked) [C20]
- pIC50: < 5.00

Compound: Cc1nc(-c2cc3ccc(F)cc3nc2N2CCC(NC3CCOCC3)CC2)no1 [compound 486]
- pIC50 [1]: 5.97

Compound: CCc1noc(-c2cc3cc(C)ccc3nc2N2CC[C@@H](NC3CCCCC3)[C@H](OC)C2)n1 [compound 335]
- pIC50 [1]: 6.95

Compound: COC1CN(c2nc3ccccc3cc2C2=NCC(C)O2)CCC1NC1CCCCC1O (centres unmarked) [compound 258]
- pIC50 [1]: 5.15
